Test results as given in PubChem BioAssay (NCI).
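96-well plates; 48 h exposure; 5 concentrations. Endpoints by linear interpolation between flanking doses. Not reached: highest tested concentration assigned. GI50 marks 50% less growth. TGI marks complete inhibition of growth.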

Columns and labels:
Experiment in all cases: NCI anticancer screen, dose series, 48 h
NCI/ADR-RES ovarian = system: NCI/ADR-RES ovarian
A498 renal = system: A498 renal
786-0 renal = system: 786-0 renal
SK-OV-3 ovarian = system: SK-OV-3 ovarian
MOLT-4 leukemia = system: MOLT-4 leukemia
OVCAR-8 ovarian = system: OVCAR-8 ovarian
SK-MEL-28 melanoma = system: SK-MEL-28 melanoma
HOP-62 NSCLC = system: HOP-62 NSCLC
CAKI-1 renal = system: CAKI-1 renal
SW-620 colon = system: SW-620 colon
SF-295 CNS = system: SF-295 CNS
UACC-62 melanoma = system: UACC-62 melanoma
SF-539 CNS = system: SF-539 CNS
MDA-MB-231 breast = system: MDA-MB-231 breast
NCI-H460 lung = system: NCI-H460 lung
UACC-257 melanoma = system: UACC-257 melanoma
SNB-19 CNS = system: SNB-19 CNS
OVCAR-4 ovarian = system: OVCAR-4 ovarian
MCF7 breast = system: MCF7 breast
HCT-15 colon = system: HCT-15 colon
HOP-92 NSCLC = system: HOP-92 NSCLC
PC-3 prostate = system: PC-3 prostate
SF-268 CNS = system: SF-268 CNS
COLO 205 colon = system: COLO 205 colon
HS 578T breast = system: HS 578T breast
HT29 colon = system: HT29 colon
U251 CNS = system: U251 CNS
NCI-H23 lung = system: NCI-H23 lung
TK-10 renal = system: TK-10 renal
KM12 colon = system: KM12 colon
SNB-75 CNS = system: SNB-75 CNS
LOX IMVI melanoma = system: LOX IMVI melanoma
DU-145 prostate = system: DU-145 prostate
ACHN renal = system: ACHN renal
OVCAR-5 ovarian = system: OVCAR-5 ovarian
K-562 leukemia = system: K-562 leukemia
HCT-116 colon = system: HCT-116 colon
RPMI-8226 leukemia = system: RPMI-8226 leukemia
SK-MEL-5 melanoma = system: SK-MEL-5 melanoma
A549 NSCLC = system: A549 NSCLC
SN12C renal = system: SN12C renal
MDA-MB-435 = system: MDA-MB-435
HCC-2998 colon = system: HCC-2998 colon
SR leukemia = system: SR leukemia
M14 melanoma = system: M14 melanoma
BT-549 breast = system: BT-549 breast
CCRF-CEM leukemia = system: CCRF-CEM leukemia
EKVX NSCLC = system: EKVX NSCLC
UO-31 renal = system: UO-31 renal
IGROV1 ovarian = system: IGROV1 ovarian
OVCAR-3 ovarian = system: OVCAR-3 ovarian
SK-MEL-2 melanoma = system: SK-MEL-2 melanoma
HL-60(TB) leukemia = system: HL-60(TB) leukemia

## COc1ccc2c(c1)OC1=C(C(=O)OC1)C2c1cc(OC)c2c(c1)OCCO2 (stereo unspecified)
NCI/ADR-RES ovarian
  GI50: 27.9 nM
  TGI: 91.5 nM
A498 renal
  GI50: 24.9 nM
  TGI: 232 nM
786-0 renal
  GI50: 68 nM
  TGI: > 23100 nM
SK-OV-3 ovarian
  GI50: 71.6 nM
  TGI: 7330 nM
MOLT-4 leukemia
  GI50: 182 nM
  TGI: > 100000 nM
OVCAR-8 ovarian
  GI50: 71.2 nM
  TGI: > 100000 nM
SK-MEL-28 melanoma
  GI50: 51.7 nM
  TGI: > 100000 nM
HOP-62 NSCLC
  GI50: 51.2 nM
  TGI: > 100000 nM
CAKI-1 renal
  GI50: 41.1 nM
  TGI: > 100000 nM
SW-620 colon
  GI50: 39.3 nM
  TGI: > 100000 nM
SF-295 CNS
  GI50: 31.2 nM
  TGI: > 100000 nM
UACC-62 melanoma
  GI50: 45.6 nM
  TGI: > 100000 nM
SF-539 CNS
  GI50: 48 nM
  TGI: > 100000 nM
MDA-MB-231 breast
  GI50: 156 nM
  TGI: > 94600 nM
NCI-H460 lung
  GI50: 40.8 nM
  TGI: > 100000 nM
UACC-257 melanoma
  GI50: 45.8 nM
  TGI: > 100000 nM
SNB-19 CNS
  GI50: 69.7 nM
  TGI: > 100000 nM
OVCAR-4 ovarian
  GI50: 173 nM
  TGI: > 100000 nM
MCF7 breast
  GI50: 35.2 nM
  TGI: > 100000 nM
HCT-15 colon
  GI50: 53.1 nM
  TGI: > 100000 nM
HOP-92 NSCLC
  GI50: 62.9 nM
  TGI: > 100000 nM
PC-3 prostate
  GI50: 48.7 nM
  TGI: > 100000 nM
SF-268 CNS
  GI50: 156 nM
  TGI: > 100000 nM
COLO 205 colon
  GI50: 36.2 nM
  TGI: 130 nM
HS 578T breast
  GI50: 36.1 nM
  TGI: > 100000 nM
HT29 colon
  GI50: 36.6 nM
U251 CNS
  GI50: 43.3 nM
NCI-H23 lung
  GI50: 45.4 nM
  TGI: > 100000 nM
TK-10 renal
  GI50: 1540 nM
  TGI: > 100000 nM
KM12 colon
  GI50: 46.4 nM
  TGI: > 100000 nM
SNB-75 CNS
  GI50: 34.6 nM
  TGI: > 100000 nM
LOX IMVI melanoma
  GI50: 80.2 nM
  TGI: > 100000 nM
DU-145 prostate
  GI50: 91.5 nM
ACHN renal
  GI50: 122 nM
  TGI: > 100000 nM
OVCAR-5 ovarian
  GI50: 126 nM
  TGI: > 100000 nM
K-562 leukemia
  GI50: 43.2 nM
  TGI: > 100000 nM
HCT-116 colon
  GI50: 47.8 nM
  TGI: > 31900 nM
RPMI-8226 leukemia
  GI50: 87.1 nM
  TGI: > 100000 nM
SK-MEL-5 melanoma
  GI50: 34.7 nM
  TGI: 535 nM
A549 NSCLC
  GI50: 60.3 nM
  TGI: > 100000 nM
SN12C renal
  GI50: 97.2 nM
  TGI: > 100000 nM
MDA-MB-435
  GI50: 21 nM
  TGI: 56 nM
HCC-2998 colon
  GI50: 78.1 nM
SR leukemia
  GI50: 31.8 nM
  TGI: > 100000 nM
M14 melanoma
  GI50: 56.6 nM
  TGI: > 100000 nM
BT-549 breast
  GI50: 131 nM
  TGI: 28800 nM
CCRF-CEM leukemia
  GI50: 64.7 nM
EKVX NSCLC
  GI50: 68.2 nM
  TGI: > 100000 nM
UO-31 renal
  GI50: 71 nM
  TGI: > 100000 nM
IGROV1 ovarian
  GI50: 128 nM
  TGI: > 100000 nM
OVCAR-3 ovarian
  GI50: 28.5 nM
  TGI: 71.4 nM
SK-MEL-2 melanoma
  GI50: 48.3 nM
  TGI: > 100000 nM
HL-60(TB) leukemia
  GI50: 42 nM
  TGI: 174 nM
